The values below come from US6881414B2, “Mild cosmetic composition with stabilized retinoids” (Unilever Home & Personal Care USA, division of Conopco, Inc., priority 2000, dated 2005).

One series deals with T1, CRABPII (Homo sapiens, UniProt P29373).
T1 construct: made in house; host or cells: E. coli BLR(DE3)pLysS
T1 sequence (P29373 1-138): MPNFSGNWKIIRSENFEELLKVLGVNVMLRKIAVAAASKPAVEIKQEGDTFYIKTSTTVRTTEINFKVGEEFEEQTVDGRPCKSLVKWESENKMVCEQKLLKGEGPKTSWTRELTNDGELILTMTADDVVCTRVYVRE
Put plainly: CRABPII antagonist radioactive binding assay (to identify B4). Conditions: competition with radioactive all trans retinoic acid; ligand excess ratio not given. The source says:
2.6 Assay for CRABPII Antagonists (To Identify B4)
2.6.1. Synthesis of CRABPII
The gene CRABPII was cloned in pET 29a-c(+) plasmid (Novagen). The cloned gene was under control of strong bacteriophage T7 transcription and translation signals. The source of T7 polymerase was provided by the host cell E.coli BLR(DE3)pLysS (Novagen). The latter has a chromosomal copy of T7 polymerase under lacUV5 control, induced by the presence of IPTG.
The plasmid was transferred into E. coli BLR(DE3)pLysS cells by transformation according to the manufacturer protocol (Novagen).
An overnight culture of the transformed cells was diluted 1:100 into 2×YT containing 50 μg/mL kanamycin and 25 μg/mL chloramphenicol. The cells grew while shaking at 37° C. until the OD at 600 nm reached 0.6-0.8. Then IPTG was added to a final concentration of 1 mM and the culture was incubated for an additional two hours. The cells were harvested by centrifugation at 5000 g for 10 minutes at room temperature. The pellet was stored at −20° C.
Purification was performed according to the method described in A. W. Norris & E. Li, Generation and characterization of cellular retinoic acid-binding proteins from Escherichia coli expression systems”. Methods Enzymol. 282:3-13 (1997).
The frozen pellet was thawed at RT and resuspended in 1-2 pellet volumes of freshly prepared lysis buffer (50 mM Tris-HCl, pH 8, 10% (w/v) sucrose, 1 mM EDTA, 0.05% (w/v) sodium azide, 0.5 mM DTT, 10 mM MnCl2, 2.5 mM phenylmethylsulfonyl fluoride, 2.5 mM benzamidine, 6 μg/mL DNase). The lysate was incubated for 30 min at room temperature. Further lysis was accomplished by sonication (six 30-sec bursts at […] alternated with five 30-sec delay on ice). […]
The supernatant from step a. was loaded onto a 2.5×100 cm column of sephacryl S-300 (Pharmacia) at room temperature. […] Collected 2-mL fractions were checked for ultraviolet absorbance at 280 nm. […]
For the competitive assay, another ligand in excess (6670:1, 670:1 or 70:1) was added to the mix. […] The radioactivity of the filtrate was measured by scintillation counter.

In a further series the target is T2, LRAT (Bos taurus, UniProt Q9BGL2).
T2 construct: followed by approximately 15 μg of RPE microsomal protein; tissue W. L. Lawson Co; host or cells: bovine retinal pigment epithelium microsomes
T2 sequence (Q9BGL2 1-230): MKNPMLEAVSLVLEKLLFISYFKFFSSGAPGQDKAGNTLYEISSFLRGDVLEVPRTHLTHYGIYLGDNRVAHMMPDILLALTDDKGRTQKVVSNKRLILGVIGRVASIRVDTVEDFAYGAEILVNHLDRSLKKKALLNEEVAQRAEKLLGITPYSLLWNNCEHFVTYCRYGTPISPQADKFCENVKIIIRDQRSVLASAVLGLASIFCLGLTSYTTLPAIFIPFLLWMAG
Put plainly: LRAT activity assay, RPE microsomes (to identify B1). Format: biochemical, bovine. As to conditions: for % Inhibition LRAT (10 μm): compound 10 μm; for % Inhibition LRAT (100 μm): compound 100 μm.

Series [1] is described as follows: Retinoid solubility in oil (UV spectroscopy of filtrate). It is filed as physicochemical. Here is the method:
As an illustration, solubility of retinol crystals in varying oils is as follows:
Retinoid solubility in oil is determined by the following procedure. A known weight of pure retinoid in excess of the expected solubility limit in the oil is added in an oil. Methanol is added to the mixture to dissolve all retinoid crystals. Nitrogen sparging is used to ensure all methanol was evaporated from the oil. Retinoid is allowed to recrystallize overnight. The sample is filtered through a 0.45 micron filter. Known dilutions of the filtrate in isopropanol are measured by UV spectroscopy at an appropriate wavelength (325 nm for retinol) and the concentration of retinoid determined against calibration standards of retinoid in isopropanol.

In the next series the test system is TGase I in keratinocytes. Briefly: Transglutaminase (TGase I) ELISA assay in cultured keratinocytes. Format: cell-based. As to conditions: added effect of booster+retinol induced TGase inhibition over retinol alone. Background: An ELISA detects its analyte on a solid surface through an enzyme-linked reagent.

Bounds are passed on as bounds.

Description for LRAT: 50 frozen hemisected bovine eyecups, with the retina and aqueous humor removed were obtained from W. L. Lawson Co., Lincoln, Nebr., U.S.A. The eyes were thawed overnight and the colored iridescent membrane was removed by peeling with forceps. […] The cell suspension was added to the iridescent membranes and the suspension was stirred for several minutes in a beaker with a Teflon stir bar. The suspension was filtered through a coarse filter (Spectra/Por 925 μl pore size polyethylene mesh) to remove large particles, and the resulting darkly colored suspension was homogenized using a Glas-Col with a motor driven Teflon homogenizer. The cell homogenate was centrifuged for 30 min. at 20,000 g (Sorvaal model RC-5B centrifuge with an SS34 rotor in 2.5×10 cm tubes at 14,000 RPM). The resulting supernatant was subjected to further centrifugation for 60 min. at 150,000 g (Beckman model L80 Ultracentrifuge with an SW50.1 rotor in 13×51 mm tubes at 40,000 RPM). The resulting pellets were dispersed into ˜5 mL 0.1M PO4/5 mM DTT, pH 7 buffer using a Heat Systems Ultrasonics, Inc. model W185D Sonifier Cell Disruptor, and the resulting microsomal dispersion was aliquoted into small tubes and stored at −70° C. The protein concentrations of the microsomes were determined using the BioRad Dye binding assay, using BSA as a standard.
2.3 Assay for ARAT and LRAT Activity (To Identify B1)
The following buffer was prepared and stored at 4° C.: 0.1M PO4/5 mM dithiothreitol, pH 7.0 (PO4/DTT). On the day of the assay, add 2 mg BSA per mL of buffer to give a PO4/DTT/BSA working buffer. 1 mM retinol substrate was prepared in acetonitrile and stored in amber bottles under nitrogen gas at −20° C. Solutions of 4 mM Palmitoyl-CoA in working buffer (stored in aliquots) and 4 mM dilauroyl phosphatidyl choline in ethanol were prepared and stored at −20° C. Inhibitors were prepared as 10 mM stock solutions in water, ethanol, acetonitrile or DMSO. The quench solution was prepared using pure ethanol containing 50 μg/mL butylated hydroxytoluene (BHT), and a hexane solution containing 50 μg/mL BHT was used for the extractions.
Incubate for 5 min. at 37° C. to equilibrate the reaction temperature and then add 5 μl 1 mM retinol. Cap the vials, vortex for 5 seconds and incubate for 30-90 minutes at 37° C. Quench the reaction by adding 0.5 mL ethanol/BHT. Extract the retinoids by adding 3 mL hexane/BHT, vortex the tubes for several seconds several times and centrifuge the tubes at low speed for 5 min. to quickly separate the layers. Remove the upper hexane layer into a clean vial, and re-extract the aqueous layer with another 3 mL hexane/BHT, as described above. Combine the hexane layers and evaporate the hexane by drying at 37° C. under a stream of nitrogen gas on a heated aluminum block. Store the dried residue at −20° C. until HPLC analysis. Quantitate the amount of retinyl palmitate and retinyl laurate for ARAT and LRAT activity, respectively, by integration of the HPLC signal as described below.
Note that the incubation solution contains 40 μM acyl donor, 100 μM or less inhibitor, 10 μM retinol, approximately 30 μg/mL microsomal protein, and nearly 0.1M PO4, pH 7/5 mM DTT/2 mg/mL BSA. […]
Samples for retinoid quantitation by HPLC were prepared by dissolving the residue in each vial with 100 μL of methanol. […] Aliquots of 60 μL were injected immediately and analyzed for retinoid content.
Two HPLC protocols were used for retinoid analysis. […] The column eluate was monitored from 300 nm to 400 nm.
Description for TGase I in keratinocytes: An ELISA based TGase I assay, using a TGase I antibody, was used to assess the state of differentiation of the cultured keratinocytes in the examples that follow.
Keratinocytes (cultured as described above) were plated in 96 well plates at a density of 4,000-5,000 cells per well in 200 μl media. After incubation for two to three days, or until cells are ˜50% confluent, the media was changed to media containing test compounds (five replicates per test). The cells were cultured for a further 96 hours after which time the media was aspirated and the plates stored at −70° C. Plates were removed from the freezer, and the cells were washed twice with 200 μl of 1×PBS. The cells were incubated for one hour at room temperature (RIT) with TBS/5% BSA (wash buffer, bovine serum albumin). Next the TGase primary antibody was added: 50 μl of monoclonal anti-Tgase I Ab B.C. diluted 1:2000 in wash buffer. The primary antibody was incubated for 2 hours at 37° C. and then rinsed 6× with wash buffer. Cells were then incubated with 50 μl of secondary antibody (Fab fragment, peroxidase conjugated anti-mouse IgG obtaining from Amersham) diluted 1:4,000 in wash buffer for two hours at 37° C., then rinsed three times with wash buffer. Following the rinse with washing buffer, the cells were rinsed 3× with PBS. […] TGase levels were determined and expressed as percentage control.

For the compound `O=C(O)CCCCCCCCCCCCCCC(=O)O` [Hexadecanedioic Acid], the “% Inhibition CRABPII” value at CRABPII is above 50%.

Regarding `CC(C)=CCCC(C)=CCCC(C)=CCO` [Farnesol], the “% Inhibition LRAT (10 μm)” value on LRAT is 10% +/− 7.

With `CC(C)=CCC/C(C)=C/CC/C(C)=C/CC/C(C)=C/CO` [Geranyl Geraniol], on LRAT, the “% Inhibition LRAT (10 μm)” value was found to be 16% +/− 9.

For `CC1=C(/C=C/C(C)=C/C=C/C(C)=C/CO)C(C)(C)CCC1` [retinol], the “Solubility of retinol crystals in oil” value in series [1] (in C12-15 Alkyl benzoate) turned out to be 85 wt %; in series [1] (in Cetiol OE) it was 80 wt %; in series [1] (in Cyclomethicone) it was 2.7 wt %; in series [1] (in Dimethicone), 0.49 wt %; in series [1] (in Isostearyl palmitate) it was 44 wt %; in series [1] (in Mineral oil), 34.2 wt %. In addition, the “Solubility of retinol crystals in oil” value in series [1] (in Triolein/Squalene (6:1)) stood at 56.4 wt %.

Take `C=CC(C)(O)CCC=C(C)C` (centres unmarked) [Linatool]: on LRAT, the “% Inhibition LRAT (100 μm)” value is on record as 0%.

For `CCCCC/C=C\C/C=C\CCCCCCCC(=O)N(CCO)CCO` [Linoleamide-DEA, Linoleoyl Diethanolamide], the “% Inhibition Overall TG (- ROH/RE)” value in the series on TGase I in keratinocytes was determined as 59%.

With `CC(C)CCCCCCCCCCCCCCC(=O)O` [Isostearic Acid], the “% Inhibition CRABPII” value on CRABPII is above 50%.

Consider `CCCCCCCC/C=C/CCCCCCCC(=O)O` [Elaidic Acid], for which the “% Inhibition CRABPII” value on CRABPII is on record as above 50%.

`O=C1C[C@@H](c2ccc(O)cc2)Oc2cc(O)cc(O)c21` [Naringenin]: on LRAT, the “% Inhibition LRAT (100 μm)” value amounted to 14%.

In the case of `CC(/C=C/C=C(\C)C(=O)O)=C\C=C\C=C(C)\C=C\C=C(/C)C(=O)O` [Crocetin], on LRAT, the “% Inhibition LRAT (10 μm)” value is on record as 0%.

Regarding `CN1CCN(C)C1=O` [Dimethyl Imidazolidinone], the “% Inhibition Overall TG (- ROH/RE)” value with TGase I in keratinocytes is on record as 22%.
